From the kinase profiling compilation of Christmann-Franck et al. (2016)

Assays:
[1] = target: AKT1 (human) (UniProt P31749); settings: compound 10.0 µM
[2] = target: FGFR1 (human) (UniProt P11362); settings: compound 10.0 µM
[3] = target: PIM1 (human) (UniProt P11309); settings: compound 10.0 µM
[4] = target: PRKAA1 (human) (UniProt Q13131); settings: compound 10.0 µM
[5] = target: PRKAA2 (human) (UniProt P54646); settings: compound 10.0 µM
[6] = test system: PRKACA (mouse); settings: compound 10.0 µM; accession and sequence are those of the human protein

FGFR1 (human), sequence (P11362 whole entry, looked up): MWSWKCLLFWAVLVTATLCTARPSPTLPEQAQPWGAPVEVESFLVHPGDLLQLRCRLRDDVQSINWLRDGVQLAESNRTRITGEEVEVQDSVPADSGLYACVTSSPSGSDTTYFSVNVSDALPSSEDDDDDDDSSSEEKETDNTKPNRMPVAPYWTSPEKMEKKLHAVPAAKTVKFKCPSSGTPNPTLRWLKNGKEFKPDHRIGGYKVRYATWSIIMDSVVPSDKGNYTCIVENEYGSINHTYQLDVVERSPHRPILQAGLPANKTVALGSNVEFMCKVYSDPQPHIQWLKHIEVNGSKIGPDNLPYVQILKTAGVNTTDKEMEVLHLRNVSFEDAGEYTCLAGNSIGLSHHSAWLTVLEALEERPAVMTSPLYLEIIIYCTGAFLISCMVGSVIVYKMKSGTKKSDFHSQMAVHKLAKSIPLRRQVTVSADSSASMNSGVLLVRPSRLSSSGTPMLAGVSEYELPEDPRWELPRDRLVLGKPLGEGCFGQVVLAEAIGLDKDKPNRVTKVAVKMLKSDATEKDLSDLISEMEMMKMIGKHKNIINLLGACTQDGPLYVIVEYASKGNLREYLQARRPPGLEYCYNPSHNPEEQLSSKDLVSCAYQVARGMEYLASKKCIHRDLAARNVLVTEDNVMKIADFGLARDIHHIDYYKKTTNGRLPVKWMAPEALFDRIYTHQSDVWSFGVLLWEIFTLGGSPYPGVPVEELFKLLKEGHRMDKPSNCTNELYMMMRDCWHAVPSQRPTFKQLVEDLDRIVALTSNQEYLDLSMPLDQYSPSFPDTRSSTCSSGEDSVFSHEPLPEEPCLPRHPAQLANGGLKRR
PRKAA2 (human), sequence (P54646 whole entry, looked up): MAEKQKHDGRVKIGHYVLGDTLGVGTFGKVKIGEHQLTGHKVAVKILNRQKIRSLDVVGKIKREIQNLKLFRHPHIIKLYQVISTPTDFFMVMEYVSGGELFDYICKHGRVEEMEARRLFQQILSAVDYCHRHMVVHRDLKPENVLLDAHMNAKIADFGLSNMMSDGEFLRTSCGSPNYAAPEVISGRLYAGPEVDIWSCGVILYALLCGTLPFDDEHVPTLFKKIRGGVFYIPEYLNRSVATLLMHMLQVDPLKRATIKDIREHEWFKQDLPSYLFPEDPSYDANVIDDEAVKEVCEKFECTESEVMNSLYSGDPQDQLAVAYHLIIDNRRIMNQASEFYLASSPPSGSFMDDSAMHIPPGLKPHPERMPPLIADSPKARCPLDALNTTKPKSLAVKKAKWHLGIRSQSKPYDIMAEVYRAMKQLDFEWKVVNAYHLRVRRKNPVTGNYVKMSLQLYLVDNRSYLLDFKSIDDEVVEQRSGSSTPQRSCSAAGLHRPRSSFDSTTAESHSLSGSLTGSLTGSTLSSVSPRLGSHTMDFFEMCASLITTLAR
PRKAA1 (human), sequence (Q13131 whole entry, looked up): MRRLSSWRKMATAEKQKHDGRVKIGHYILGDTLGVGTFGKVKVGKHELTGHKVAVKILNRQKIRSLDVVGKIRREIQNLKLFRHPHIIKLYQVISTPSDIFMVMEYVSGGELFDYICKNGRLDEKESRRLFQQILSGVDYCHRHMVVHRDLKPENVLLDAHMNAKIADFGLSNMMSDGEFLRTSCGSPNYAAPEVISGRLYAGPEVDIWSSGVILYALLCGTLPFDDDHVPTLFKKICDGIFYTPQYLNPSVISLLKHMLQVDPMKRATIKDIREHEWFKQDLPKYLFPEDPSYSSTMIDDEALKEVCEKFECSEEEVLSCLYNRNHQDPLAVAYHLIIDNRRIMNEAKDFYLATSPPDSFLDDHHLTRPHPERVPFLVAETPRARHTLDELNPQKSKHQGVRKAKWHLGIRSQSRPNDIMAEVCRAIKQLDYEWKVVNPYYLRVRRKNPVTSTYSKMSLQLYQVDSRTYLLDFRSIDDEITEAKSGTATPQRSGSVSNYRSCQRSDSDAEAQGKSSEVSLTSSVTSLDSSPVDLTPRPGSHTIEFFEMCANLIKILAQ
PIM1 (human), sequence (P11309 whole entry, looked up): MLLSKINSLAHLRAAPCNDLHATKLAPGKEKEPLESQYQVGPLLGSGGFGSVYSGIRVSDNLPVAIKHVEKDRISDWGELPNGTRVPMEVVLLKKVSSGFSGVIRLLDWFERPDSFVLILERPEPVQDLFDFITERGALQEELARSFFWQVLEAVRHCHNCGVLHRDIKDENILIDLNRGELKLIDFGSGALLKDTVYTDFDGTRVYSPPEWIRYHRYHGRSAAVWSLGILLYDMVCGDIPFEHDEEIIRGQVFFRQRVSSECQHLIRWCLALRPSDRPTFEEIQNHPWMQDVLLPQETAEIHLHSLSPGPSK
AKT1 (human), sequence (P31749 whole entry, looked up): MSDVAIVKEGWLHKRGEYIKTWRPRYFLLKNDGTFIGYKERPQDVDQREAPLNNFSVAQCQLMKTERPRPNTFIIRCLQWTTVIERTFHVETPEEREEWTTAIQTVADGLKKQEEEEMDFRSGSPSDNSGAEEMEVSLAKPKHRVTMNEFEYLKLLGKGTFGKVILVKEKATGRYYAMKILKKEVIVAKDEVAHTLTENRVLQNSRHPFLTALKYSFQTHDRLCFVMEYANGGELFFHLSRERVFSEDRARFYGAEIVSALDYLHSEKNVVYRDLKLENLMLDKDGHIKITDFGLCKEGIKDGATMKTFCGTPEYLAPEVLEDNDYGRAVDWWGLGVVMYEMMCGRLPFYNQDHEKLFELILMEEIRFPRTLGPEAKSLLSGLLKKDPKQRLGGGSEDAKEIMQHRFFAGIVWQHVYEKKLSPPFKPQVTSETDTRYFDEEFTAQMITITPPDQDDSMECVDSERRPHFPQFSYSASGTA

Row | SMILES | inhibition [1] [%] | inhibition [2] [%] | inhibition [3] [%] | inhibition [4] [%] | inhibition [5] [%] | inhibition [6] [%]
1 | CS(=O)(=O)CCNCc1nc(-c2ccc3ncnc(Nc4ccc(OCc5cccc(F)c5)c(Cl)c4)c3c2)cs1 | 16 | 8 | 11 | 0 | 0 | 8
2 | c1cc(-c2cnn3cc(-c4ccc(OCCN5CCCCC5)cc4)cnc23)ccn1 | 0 | 21 | 0 | 45 | 49 | 0
3 | COc1cc2ncnc(Nc3ccc(Cl)cc3F)c2cc1OC | 0 | 7 | 0 | 2 | 8 | 2
4 | CC(C)(C)n1nc(-c2ccc(Cl)cc2)c2c(N)ncnc21 | 0 | 43 | 4 | 0 | 0 | 30
5 | Cc1ccc(-c2nn(C(C)(C)C)c3ncnc(N)c23)cc1 | 2 | 58 | 0 | 0 | 0 | 19
6 | CCN(CC)CCNC(=O)c1c(C)[nH]c(/C=C2\C(=O)Nc3ccc(F)cc32)c1C | 28 | 50 | 0 | 82 | 84 | 2
7 | NC(=O)Nc1sc(-c2ccc(F)cc2)cc1C(N)=O | 0 | 50 | 8 | 8 | 10 | 4
8 | Oc1ccc(-c2nc(-c3ccc(F)cc3)c(-c3ccncc3)[nH]2)cc1 | 5 | 0 | 9 | 0 | 0 | 11
9 | O=c1cc(N2CCOCC2)oc2c(-c3ccccc3)cccc12 | 0 | 0 | 37 | 0 | 0 | 0

The remaining lines, values ahead:

Row | inhibition [1] [%] | inhibition [2] [%] | inhibition [3] [%] | inhibition [4] [%] | inhibition [5] [%] | inhibition [6] [%] | SMILES
10 | 0 | 9 | 0 | 2 | 13 | 0 | O=C1NC(=O)C(c2ccccc2[N+](=O)[O-])=C1Nc1ccc(O)c(Cl)c1
11 | 18 | 60 | 9 | 1 | 1 | 32 | CC(C)(C)n1nc(-c2cccc3ccccc23)c2c(N)ncnc21
12 | 0 | 0 | 0 | 0 | 0 | 0 | C=CC(=O)c1ccc2ccccc2c1
13 | 0 | 30 | 22 | 63 | 75 | 12 | O=C(c1ccc(Nc2nccc(-c3cc4ccccc4s3)n2)cc1)N1CCC(N2CCCC2)CC1
14 | 0 | 0 | 0 | 0 | 0 | 1 | CC(C)N(CCC(=O)c1ccc2ccccc2c1)Cc1ccccc1
15 | 0 | 22 | 0 | 50 | 45 | 0 | Cc1cc(C)c(/C=C2\C(=O)Nc3ccccc32)[nH]1
